What was measured:
Assay in all cases: combination Emax (second highest fraction inhibited in the dose matrix, 72 h); higher = more inhibition; extreme values may be limits of the assay
[1] = tested on: OVCA420 (Ovarian Carcinoma)
In short: (§1)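 Cell lines in DMEM/F12 or RPMI with 10% FBS were plated in 1536-well plates, held 24 hours at 37°C, 5% CO2, then given two-drug dose matrices for 72 hours (DMSO typically 0.2%). Viability was read by CellTiter-Glo 2.0 luminescence and scaled as inhibition from 0 (vehicle wells) to 1 (blank wells). Combination Emax is the second-highest inhibition in the matrix; Bliss excess is observed combination effect minus expected EA + EB − EA·EB, EA and EB being single-agent effects.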

[2] = tested on: HCC1806 (Breast Carcinoma)
In short: as §1

[3] = tested on: ME-1 (Acute Myeloid Leukemia)
In short: as §1

T98G (Glioblastoma) = tested on: T98G (Glioblastoma)
In short: as §1

[4] = tested on: EC-GI-10 (Esophageal Squamous Cell Carcinoma)
In short: as §1

[5] = tested on: RC-K8 (B-Cell Non-Hodgkin's Lymphoma)
In short: as §1

[6] = tested on: DEL (T-Cell Non-Hodgkin's Lymphoma)
In short: as §1

[7] = tested on: Calu-3 (Lung Adenocarcinoma)
In short: as §1

[8] = tested on: MFE-296 (Endometrial Carcinoma)
In short: as §1

[9] = tested on: TE-9 (Esophageal Squamous Cell Carcinoma)
In short: as §1

NB10 (Neuroblastoma) = tested on: NB10 (Neuroblastoma)
In short: as §1

[10] = tested on: UM-UC-3 (Bladder Carcinoma)
In short: as §1

Row | Compound | combination Emax [1] | combination Emax [2] | combination Emax [3] | combination Emax (T98G (Glioblastoma)) | combination Emax [4] | combination Emax [5] | combination Emax [6] | combination Emax [7] | combination Emax [8] | combination Emax [9] | combination Emax (NB10 (Neuroblastoma)) | combination Emax [10]
1 | CN(CCO)CC[C@H](CSc1ccccc1)Nc1ccc(S(=O)(=O)NC(=O)c2ccc(N3CCC([C@@H](O)c4ccccc4-c4ccc(Cl)cc4)CC3)cc2)cc1S(=O)(=O)C(F)(F)F [AZD4320] + C1CN(CCC1(C(=O)N[C@@H](CCO)C2=CC=C(C=C2)Cl)N)C3=NC=NC4=C3C=CN4 [Capivasertib] (first compound max 1 µM, 7x7, partner max 3 µM) | 0.0769 | 0.212 | 1 | 0.249 | 0.204 | 0.552 | 0.192 | 0.124 | 0.388 | 0.356 | 0.108 | 0.196
2 | CN(CCO)CC[C@H](CSc1ccccc1)Nc1ccc(S(=O)(=O)NC(=O)c2ccc(N3CCC([C@@H](O)c4ccccc4-c4ccc(Cl)cc4)CC3)cc2)cc1S(=O)(=O)C(F)(F)F [AZD4320] + C=CCn1c(=O)c2cnc(Nc3ccc(N4CCN(C)CC4)cc3)nc2n1-c1cccc(C(C)(C)O)n1 [AZD1775] (first compound max 1 µM, partner max 1 µM) | 0.37 | 0.972 | 1 | 0.892 | 0.903 | 0.934 | 1 | 0.182 | 0.273 | 0.34 | 0.493 | 0.276
3 | CN(CCO)CC[C@H](CSc1ccccc1)Nc1ccc(S(=O)(=O)NC(=O)c2ccc(N3CCC([C@@H](O)c4ccccc4-c4ccc(Cl)cc4)CC3)cc2)cc1S(=O)(=O)C(F)(F)F [AZD4320] + CCN(CCO)CCCOc1ccc2c(Nc3cc(CC(=O)Nc4cccc(F)c4)[nH]n3)ncnc2c1 [AZD2811] (first compound max 1 µM, 7x7, partner max 1 µM) | 0.174 | 0.201 | 1 | 0.554 | 0.401 | 0.917 | 0.804 | 0.168 | 0.11 | 0.451 | 0.408 | 0.226
4 | CN(CCO)CC[C@H](CSc1ccccc1)Nc1ccc(S(=O)(=O)NC(=O)c2ccc(N3CCC([C@@H](O)c4ccccc4-c4ccc(Cl)cc4)CC3)cc2)cc1S(=O)(=O)C(F)(F)F [AZD4320] + CN(C)CCCOc1ccc(-c2ccc3ncc4c(c3c2)n(C2CCOCC2)c(=O)n4C)cn1 [AZD0156] (first compound max 1 µM, 7x7, partner max 1 µM) | 0.174 | 0.133 | 1 | 0.126 | 0.193 | 0.407 | 0.357 | 0.117 | 0.0842 | 0.263 | 0.215 | 0.201
5 | CN(CCO)CC[C@H](CSc1ccccc1)Nc1ccc(S(=O)(=O)NC(=O)c2ccc(N3CCC([C@@H](O)c4ccccc4-c4ccc(Cl)cc4)CC3)cc2)cc1S(=O)(=O)C(F)(F)F [AZD4320] + C[C@@H]1COCCN1C2=NC(=NC(=C2)C3(CC3)[S@](=N)(=O)C)C4=C5C=CNC5=NC=C4 [AZD6738] (first compound max 1 µM, 7x7, partner max 10 µM) | 0.516 | 0.972 | 1 | 0.954 | 0.647 | 0.956 | 1 | 0.284 | 0.559 | 0.372 | 0.689 | 0.7
6 | CN(CCO)CC[C@H](CSc1ccccc1)Nc1ccc(S(=O)(=O)NC(=O)c2ccc(N3CCC([C@@H](O)c4ccccc4-c4ccc(Cl)cc4)CC3)cc2)cc1S(=O)(=O)C(F)(F)F [AZD4320] + C[C@@H](Nc1cc(F)cc(F)c1)c1cc(C(=O)N(C)C)cc2c(=O)cc(N3CCOCC3)oc12 [AZD8186] (first compound max 1 µM, 7x7, partner max 3 µM) | 0.261 | 0.696 | 1 | 0.482 | 0.333 | 0.999 | 0.888 | 0.242 | 0.306 | 0.312 | 0.78 | 0.374
7 | CN(CCO)CC[C@H](CSc1ccccc1)Nc1ccc(S(=O)(=O)NC(=O)c2ccc(N3CCC([C@@H](O)c4ccccc4-c4ccc(Cl)cc4)CC3)cc2)cc1S(=O)(=O)C(F)(F)F [AZD4320] + Cc1cc2ncnn2cc1Nc1ncc2c(n1)n(C1CCOCC1)c(=O)n2C [AZD7648] (first compound max 1 µM, 7x7, partner max 10 µM) | 0.157 | 0.0765 | 1 | 0.255 | 0.232 | 0.596 | 0.315 | 0.182 | 0.124 | 0.246 | 0.172 | 0.121
8 | CN(CCO)CC[C@H](CSc1ccccc1)Nc1ccc(S(=O)(=O)NC(=O)c2ccc(N3CCC([C@@H](O)c4ccccc4-c4ccc(Cl)cc4)CC3)cc2)cc1S(=O)(=O)C(F)(F)F [AZD4320] + Cn1cnc2c(F)c(Nc3ccc(Br)cc3Cl)c(C(=O)NOCCO)cc21 [Selumetinib] (first compound max 1 µM, 7x7, partner max 3 µM) | 0.451 | 0.795 | 1 | 0.277 | 0.51 | 0.993 | 0.858 | 0.245 | 0.396 | 0.438 | 0.887 | 0.332
9 | COc1nnc2ccc(N3CCC(c4ccc(OCCN5CCN(C)C(=O)[C@H]5C)cc4)CC3)nn12 [AZD5153] + C=CCn1c(=O)c2cnc(Nc3ccc(N4CCN(C)CC4)cc3)nc2n1-c1cccc(C(C)(C)O)n1 [AZD1775] (first compound max 1 µM, partner max 1 µM) | 0.789 | 0.9 | 0.572 | 0.717 | 0.865 | 0.787 | 1 | 0.632 | 0.581 | 0.275 | 0.749 | 0.393
10 | COc1nnc2ccc(N3CCC(c4ccc(OCCN5CCN(C)C(=O)[C@H]5C)cc4)CC3)nn12 [AZD5153] + CN(CC[C@H](CSC1=CC=CC=C1)NC2=C(C=C(C=C2)S(=O)(=O)NC(=O)C3=CC=C(C=C3)N4CCC(CC4)[C@H](C5=CC=CC=C5C6=CC=C(C=C6)Cl)O)S(=O)(=O)C(F)(F)F)CCO [AZD4320] (first compound max 1 µM, 7x7, partner max 1 µM) | 0.813 | 0.588 |  |  | 0.275 | 1 | 0.844 |  | 0.31 |  |  | 
11 | Cc1c2c(nn1C)CSCc1cc(n(C)n1)CSc1cc(c3ccccc3c1)OCCCc1c(C(=O)O)n(C)c3c-2c(Cl)ccc13 [AZD5991] + C1CN(CCC1(C(=O)N[C@@H](CCO)C2=CC=C(C=C2)Cl)N)C3=NC=NC4=C3C=CN4 [Capivasertib] (first compound max 1 µM, 7x7, partner max 3 µM) | 0.212 | 0.528 | 0.772 | 0.3 | 0.775 | 0.161 | 1 | 0.182 | 0.825 |  | 0.194 | 0.216
12 | CC(=O)c1c(C)c2cnc(Nc3ccc(N4CCNCC4)cn3)nc2n(C2CCCC2)c1=O [Palbociclib] + CN(CC[C@H](CSC1=CC=CC=C1)NC2=C(C=C(C=C2)S(=O)(=O)NC(=O)C3=CC=C(C=C3)N4CCC(CC4)[C@H](C5=CC=CC=C5C6=CC=C(C=C6)Cl)O)S(=O)(=O)C(F)(F)F)CCO [AZD4320] (first compound max 10 µM, 7x7, partner max 1 µM) | 0.21 | 0.442 |  |  | 0.493 | 0.838 | 0.916 |  | 0.293 |  |  | 
13 | COc1cccc(OCCCN)c1-c1cc(Nc2cnc(C#N)cn2)n[nH]1 [Prexasertib] + Cc1cc2ncnn2cc1Nc1ncc2c(n1)n(C1CCOCC1)c(=O)n2C [AZD7648] (first compound max 1 µM, 7x7, partner max 10 µM) | 0.699 | 0.978 | 0.622 | 0.893 | 0.713 |  | 1 | 0.416 | 0.569 | 0.516 | 0.918 | 0.56
14 | COc1cccc(OCCCN)c1-c1cc(Nc2cnc(C#N)cn2)n[nH]1 [Prexasertib] + O=C(c1cc(Cc2n[nH]c(=O)c3ccccc23)ccc1F)N1CCN(C(=O)C2CC2)CC1 [Olaparib] (first compound max 1 µM, 7x7, partner max 10 µM) | 0.733 | 0.999 | 0.61 | 0.757 | 0.78 |  | 1 | 0.381 | 0.525 | 0.567 | 0.797 | 0.629
15 | COc1cc2c(cc1OCCCCCOc1cc3c(cc1OC)C(=O)N1C=C(C)C[C@H]1C=N3)N=C[C@@H]1CC(C)=CN1C2=O [SG3199] + O=C(c1cc(Cc2n[nH]c(=O)c3ccccc23)ccc1F)N1CCN(C(=O)C2CC2)CC1 [Olaparib] (first compound max 0.001 µM, 7x7, partner max 10 µM) | 0.0795 | 0.212 | 0.163 | 0.114 | 0.198 |  | 0.597 | 0.0759 | 0.0449 | 0.0964 | 0.348 | 0.132
16 | CCc1c2c(nc3ccc(O)cc13)-c1cc3c(c(=O)n1C2)COC(=O)[C@]3(O)CC [SN-38] + CN(C)CCCOc1ccc(-c2ccc3ncc4c(c3c2)n(C2CCOCC2)c(=O)n4C)cn1 [AZD0156] (first compound max 0.3 µM, 7x7, partner max 1 µM) | 0.171 | 0.91 | 0.571 | 0.546 | 0.776 |  | 1 | 0.319 | 0.496 | 0.395 | 0.829 | 0.978
